Laboratory results taken from PubChem BioAssay (NCI).
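Dose response: 5 concentrations. Exposure: 48 h. Format: 96-well plates. Endpoint: linear interpolation; highest concentration if not reached. Definition used: TGI = concentration required for complete inhibition of growth.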

Legend:
Test in all cases: inhibition of tumour cell growth, NCI panel, 48 h
OVCAR-4 ovarian = system: OVCAR-4 ovarian
HS 578T breast = system: HS 578T breast
MDA-N = system: MDA-N
HOP-92 NSCLC = system: HOP-92 NSCLC
SF-268 CNS = system: SF-268 CNS
786-0 renal = system: 786-0 renal
SW-620 colon = system: SW-620 colon
SK-OV-3 ovarian = system: SK-OV-3 ovarian
SK-MEL-2 melanoma = system: SK-MEL-2 melanoma
SNB-75 CNS = system: SNB-75 CNS
RXF 393 renal = system: RXF 393 renal
SK-MEL-28 melanoma = system: SK-MEL-28 melanoma
HOP-62 NSCLC = system: HOP-62 NSCLC
CCRF-CEM leukemia = system: CCRF-CEM leukemia
UACC-62 melanoma = system: UACC-62 melanoma
A549 NSCLC = system: A549 NSCLC
OVCAR-8 ovarian = system: OVCAR-8 ovarian
MCF7 breast = system: MCF7 breast
HCC-2998 colon = system: HCC-2998 colon
ACHN renal = system: ACHN renal
UACC-257 melanoma = system: UACC-257 melanoma
MALME-3M melanoma = system: MALME-3M melanoma
NCI/ADR-RES ovarian = system: NCI/ADR-RES ovarian
HCT-116 colon = system: HCT-116 colon
M14 melanoma = system: M14 melanoma
NCI-H226 lung = system: NCI-H226 lung
SNB-19 CNS = system: SNB-19 CNS
HT29 colon = system: HT29 colon
OVCAR-5 ovarian = system: OVCAR-5 ovarian
BT-549 breast = system: BT-549 breast
IGROV1 ovarian = system: IGROV1 ovarian
MDA-MB-435 = system: MDA-MB-435
SF-539 CNS = system: SF-539 CNS
A498 renal = system: A498 renal
U251 CNS = system: U251 CNS
LOX IMVI melanoma = system: LOX IMVI melanoma
EKVX NSCLC = system: EKVX NSCLC
MOLT-4 leukemia = system: MOLT-4 leukemia
HL-60(TB) leukemia = system: HL-60(TB) leukemia
PC-3 prostate = system: PC-3 prostate
DU-145 prostate = system: DU-145 prostate
SN12C renal = system: SN12C renal
T-47D breast = system: T-47D breast
RPMI-8226 leukemia = system: RPMI-8226 leukemia
NCI-H460 lung = system: NCI-H460 lung
K-562 leukemia = system: K-562 leukemia
NCI-H23 lung = system: NCI-H23 lung
COLO 205 colon = system: COLO 205 colon
SF-295 CNS = system: SF-295 CNS
TK-10 renal = system: TK-10 renal
CAKI-1 renal = system: CAKI-1 renal
MDA-MB-231 breast = system: MDA-MB-231 breast
KM12 colon = system: KM12 colon
NCI-H522 lung = system: NCI-H522 lung
HCT-15 colon = system: HCT-15 colon

Measured: TGI

O=c1c(-c2ccccc2)c(SCCN2CCCC2)n(-c2ccccc2)c(=S)n1-c1ccccc1
> 100 µM: OVCAR-4 ovarian | HS 578T breast | MDA-N | HOP-92 NSCLC | SF-268 CNS | 786-0 renal | SW-620 colon | SK-OV-3 ovarian | SK-MEL-2 melanoma | SNB-75 CNS | RXF 393 renal | SK-MEL-28 melanoma | HOP-62 NSCLC | CCRF-CEM leukemia | UACC-62 melanoma | A549 NSCLC | OVCAR-8 ovarian | MCF7 breast | HCC-2998 colon | ACHN renal | UACC-257 melanoma | MALME-3M melanoma | NCI/ADR-RES ovarian | HCT-116 colon | M14 melanoma | NCI-H226 lung | SNB-19 CNS | HT29 colon | OVCAR-5 ovarian | BT-549 breast | IGROV1 ovarian | MDA-MB-435 | SF-539 CNS | A498 renal | U251 CNS | LOX IMVI melanoma | EKVX NSCLC | MOLT-4 leukemia | HL-60(TB) leukemia | PC-3 prostate | DU-145 prostate | SN12C renal | T-47D breast | RPMI-8226 leukemia | NCI-H460 lung | K-562 leukemia | NCI-H23 lung | COLO 205 colon | SF-295 CNS | TK-10 renal | CAKI-1 renal | MDA-MB-231 breast | KM12 colon | NCI-H522 lung | HCT-15 colon
